Test results taken from publication PMC8330742, “New benzothieno[2,3-c]pyridines as non-steroidal CYP17 inhibitors: design, synthesis, anticancer screening, apoptosis induction, and in silico ADME profile studies” (Journal of Enzyme Inhibition and Medicinal Chemistry, 2021).

Experiments:
[1] = tested on: ACHN; test: NCI-60 SRB screen; assay type: cell-based; details: Homo sapiens, single dose 10^−5 M, read-out: Growth inhibition (%)
[2] = tested on: OVCAR-8; test: NCI-60 SRB screen; assay type: cell-based, human; details: Homo sapiens; OVCAR-8; single dose 10^−5 M; read-out: Growth inhibition (%)
[3] = tested on: SN12C; test: NCI-60 SRB screen; assay type: cell-based, human; details: Homo sapiens, SN12C; SN 12 C; single dose 10^−5 M; read-out: Growth inhibition (%)
[4] = tested on: UO-31; test: NCI-60 SRB screen; assay type: cell-based, human; details: Homo sapiens; UO-31; single dose 10^−5 M; read-out: Growth inhibition (%)
[5] = tested on: NCI-H23; test: NCI-60 SRB screen; assay type: cell-based, human; details: Homo sapiens; NCI-H23; single dose 10^−5 M; read-out: Growth inhibition (%)
[6] = tested on: OVCAR-4; test: NCI-60 SRB screen; assay type: cell-based, human; details: Homo sapiens; OVCAR-4; single dose 10^−5 M; read-out: Growth inhibition (%)
[7] = tested on: SW-620; test: NCI-60 SRB screen; assay type: cell-based; details: Homo sapiens; SW-620; single dose 10^−5 M; read-out: Growth inhibition (%)
[8] = tested on: K-562; test: NCI-60 SRB screen; assay type: cell-based, human; details: Homo sapiens, K562; K-562; single dose 10^−5 M; read-out: Growth inhibition (%)
[9] = tested on: NCI-H322M; test: NCI-60 SRB screen; assay type: cell-based, human; details: Homo sapiens, single dose 10^−5 M, read-out: Growth inhibition (%)
[10] = tested on: A549/ATCC; test: NCI-60 SRB screen; assay type: cell-based, human; details: Homo sapiens, single dose 10^−5 M, read-out: Growth inhibition (%)
[11] = tested on: LOX IMVI; test: NCI-60 SRB screen; assay type: cell-based, human; details: Homo sapiens, single dose 10^−5 M, read-out: Growth inhibition (%)
[12] = tested on: SF-295; test: NCI-60 SRB screen; assay type: cell-based, human; details: Homo sapiens; SF-295; single dose 10^−5 M; read-out: Growth inhibition (%)
[13] = tested on: HOP-92; test: NCI-60 SRB screen; assay type: cell-based, human; details: Homo sapiens; HOP-92; single dose 10^−5 M; read-out: Growth inhibition (%)
[14] = tested on: CCRF-CEM; test: NCI-60 SRB screen; assay type: cell-based; details: Homo sapiens, single dose 10^−5 M, read-out: Growth inhibition (%)
[15] = tested on: MDA-MB-435; test: NCI-60 SRB screen; assay type: cell-based; details: Homo sapiens, MDA-MB-435, read-out: Growth inhibition (%)
[16] = tested on: UACC-257; test: NCI-60 SRB screen; assay type: cell-based, human; details: Homo sapiens, UACC-257; UACC-275 (so in the source); single dose 10^−5 M; read-out: Growth inhibition (%)
[17] = tested on: NCI-H522; test: NCI-60 SRB screen; assay type: cell-based, human; details: Homo sapiens; NCI-H522; single dose 10^−5 M; read-out: Growth inhibition (%)
[18] = tested on: TK-10; test: NCI-60 SRB screen; assay type: cell-based, human; details: Homo sapiens; TK-10; single dose 10^−5 M; read-out: Growth inhibition (%)
[19] = tested on: EKVX; test: NCI-60 SRB screen; assay type: cell-based, human; details: Homo sapiens, single dose 10^−5 M, read-out: Growth inhibition (%)
[20] = tested on: HL-60(TB); test: NCI-60 SRB screen; assay type: cell-based, human; details: Homo sapiens; HL-60 (TB); single dose 10^−5 M; read-out: Growth inhibition (%)
[21] = tested on: M14; test: NCI-60 SRB screen; assay type: cell-based, human; details: Homo sapiens; M14; single dose 10^−5 M; read-out: Growth inhibition (%)
[22] = tested on: NCI-H460; test: NCI-60 SRB screen; assay type: cell-based, human; details: Homo sapiens; NCI-H460; single dose 10^−5 M; read-out: Growth inhibition (%)
[23] = tested on: SK-OV-3; test: NCI-60 SRB screen; assay type: cell-based, human; details: Homo sapiens; SK-OV-3; single dose 10^−5 M; read-out: Growth inhibition (%)
[24] = tested on: SK-MEL-2; test: NCI-60 SRB screen; assay type: cell-based, human; details: Homo sapiens; SK-MEL-2; single dose 10^−5 M; read-out: Growth inhibition (%)
[25] = tested on: NCI/ADR-RES; test: NCI-60 SRB screen; assay type: cell-based, human; details: Homo sapiens, single dose 10^−5 M, read-out: Growth inhibition (%)
[26] = tested on: 786-0; test: NCI-60 SRB screen; assay type: cell-based; details: Homo sapiens; 786-0; single dose 10^−5 M; read-out: Growth inhibition (%)
[27] = tested on: HCT-116; test: NCI-60 SRB screen; assay type: cell-based, human; details: Homo sapiens; HCT-116; single dose 10^−5 M; read-out: Growth inhibition (%)
[28] = tested on: HT-29; test: NCI-60 SRB screen; assay type: cell-based; details: Homo sapiens; HT-29; single dose 10^−5 M; read-out: Growth inhibition (%)
[29] = tested on: CAKI-1; test: NCI-60 SRB screen; assay type: cell-based, human; details: Homo sapiens; CAKI-1; single dose 10^−5 M; read-out: Growth inhibition (%)
[30] = tested on: HOP-62; test: NCI-60 SRB screen; assay type: cell-based, human; details: Homo sapiens; HOP-62; single dose 10^−5 M; read-out: Growth inhibition (%)
[31] = tested on: SF-268; test: NCI-60 SRB screen; assay type: cell-based, human; details: Homo sapiens; SF-268; single dose 10^−5 M; read-out: Growth inhibition (%)
[32] = tested on: COLO 205; test: NCI-60 SRB screen; assay type: cell-based, human; details: Homo sapiens; COLO 205; single dose 10^−5 M; read-out: Growth inhibition (%)
[33] = tested on: HCT-15; test: NCI-60 SRB screen; assay type: cell-based, human; details: Homo sapiens; HCT-15; single dose 10^−5 M; read-out: Growth inhibition (%)
[34] = tested on: KM12; test: NCI-60 SRB screen; assay type: cell-based, human; details: Homo sapiens; KM12; single dose 10^−5 M; read-out: Growth inhibition (%)
[35] = tested on: UACC-62; test: NCI-60 SRB screen; assay type: cell-based, human; details: Homo sapiens; UACC-62; single dose 10^−5 M; read-out: Growth inhibition (%)
[36] = tested on: HCC-2998; test: NCI-60 SRB screen; assay type: cell-based, human; details: Homo sapiens; HCC-2998; single dose 10^−5 M; read-out: Growth inhibition (%)
[37] = tested on: SR; test: NCI-60 SRB screen; assay type: cell-based; details: Homo sapiens, single dose 10^−5 M, read-out: Growth inhibition (%)
[38] = tested on: SK-MEL-5; test: NCI-60 SRB screen; assay type: cell-based, human; details: Homo sapiens; SK-MEL-5; single dose 10^−5 M; read-out: Growth inhibition (%)
[39] = tested on: NCI-H226; test: NCI-60 SRB screen; assay type: cell-based, human; details: Homo sapiens; NCI-H226; single dose 10^−5 M; read-out: Growth inhibition (%)
[40] = tested on: MALME-3M; test: NCI-60 SRB screen; assay type: cell-based, human; details: Homo sapiens, single dose 10^−5 M, read-out: Growth inhibition (%)
[41] = tested on: MOLT-4; test: NCI-60 SRB screen; assay type: cell-based; details: Homo sapiens; MOLT-4; single dose 10^−5 M; read-out: Growth inhibition (%)
[42] = tested on: SK-MEL-28; test: NCI-60 SRB screen; assay type: cell-based; details: Homo sapiens; SK-MEL-28; single dose 10^−5 M; read-out: Growth inhibition (%)
[43] = tested on: OVCAR-3; test: NCI-60 SRB screen; assay type: cell-based, human; details: Homo sapiens; OVCAR-3; single dose 10^−5 M; read-out: Growth inhibition (%)
[44] = tested on: IGROV1; test: NCI-60 SRB screen; assay type: cell-based, human; details: Homo sapiens, IGROV-1; IGROV1; single dose 10^−5 M; read-out: Growth inhibition (%)
[45] = tested on: panel of 60 cancer cell lines; test: NCI-60 SRB screen, mean or range over the panel; assay type: cell-based, human; details: Homo sapiens; mean over the cell lines; single dose 10^−5 M; read-out: Mean growth inhibition (%)

O=C1NC(c2cccc([N+](=O)[O-])c2)c2sc3c(F)cccc3c2C1N1CCCCC1 (stereo not drawn) [Compound 6c, 8-Fluoro-1-(3-nitrophenyl)-4-(piperidin-1-yl)-1,2-dihydro[1]benzothieno [2,3-c]pyridin-3(4H)-one]
inhibition at 10 µM [1]: 9.32%
inhibition at 10 µM [2]: 5%
inhibition at 10 µM [3]: 2.45%
inhibition at 10 µM [4]: 32.2%
inhibition at 10 µM [5]: 5.16%
inhibition at 10 µM [6]: -4.39%
inhibition at 10 µM [7]: 7.46%
inhibition at 10 µM [8]: 6.11%
inhibition at 10 µM [9]: 2.6%
inhibition at 10 µM [10]: -0.32%
inhibition at 10 µM [11]: 2.5%
inhibition at 10 µM [12]: 2.28%
inhibition at 10 µM [13]: 14.1%
inhibition at 10 µM [14]: 1.84%
inhibition at 10 µM [15]: -8.63%
inhibition at 10 µM [16]: -6.77%
inhibition at 10 µM [17]: 14%
inhibition at 10 µM [18]: -42.2%
inhibition at 10 µM [19]: 5.86%
inhibition at 10 µM [20]: -17%
inhibition at 10 µM [21]: 1.9%
inhibition at 10 µM [22]: -0.58%
inhibition at 10 µM [23]: -0.84%
inhibition at 10 µM [24]: -8.06%
inhibition at 10 µM [25]: -1.66%
inhibition at 10 µM [26]: -6.36%
inhibition at 10 µM [27]: 20.6%
inhibition at 10 µM [28]: 9%
inhibition at 10 µM [29]: 17.6%
inhibition at 10 µM [30]: 11.5%
inhibition at 10 µM [31]: 2.64%
inhibition at 10 µM [32]: -12.7%
inhibition at 10 µM [33]: 3.74%
inhibition at 10 µM [34]: 2.91%
inhibition at 10 µM [35]: 4.85%
inhibition at 10 µM [36]: 2.82%
inhibition at 10 µM [37]: 0.3%
inhibition at 10 µM [38]: 1.15%
inhibition at 10 µM [39]: 8.71%
inhibition at 10 µM [40]: -1.85%
inhibition at 10 µM [41]: 8.91%
inhibition at 10 µM [42]: -12.4%
inhibition at 10 µM [43]: -2.74%
inhibition at 10 µM [44]: 20.7%
inhibition at 10 µM [45]: 2.54%

O=[N+]([O-])c1cccc(C2NC(Cl)=C(Cl)c3c2sc2c(F)cccc32)c1 (stereo not drawn) [Compound 7a, 3,4-Dichloro-8-fluoro-1-(3-nitrophenyl)-1,2-dihydro[1]benzothieno[2,3-c] pyridine]
inhibition at 10 µM [1]: 6.96%
inhibition at 10 µM [2]: 1.9%
inhibition at 10 µM [3]: 2.54%
inhibition at 10 µM [4]: 30.2%
inhibition at 10 µM [5]: 8.55%
inhibition at 10 µM [6]: 3.16%
inhibition at 10 µM [7]: 4.18%
inhibition at 10 µM [8]: 18%
inhibition at 10 µM [9]: -2.48%
inhibition at 10 µM [10]: 2.3%
inhibition at 10 µM [11]: 1.24%
inhibition at 10 µM [12]: -2.06%
inhibition at 10 µM [13]: 14.7%
inhibition at 10 µM [14]: 2.12%
inhibition at 10 µM [15]: -9.15%
inhibition at 10 µM [16]: -7.18%
inhibition at 10 µM [17]: 12.7%
inhibition at 10 µM [18]: -37.2%
inhibition at 10 µM [19]: 7.1%
inhibition at 10 µM [20]: -8.33%
inhibition at 10 µM [21]: 4.95%
inhibition at 10 µM [22]: 1.24%
inhibition at 10 µM [23]: 5.95%
inhibition at 10 µM [24]: -5.95%
inhibition at 10 µM [25]: -2.76%
inhibition at 10 µM [26]: -7.16%
inhibition at 10 µM [27]: 13.4%
inhibition at 10 µM [28]: -1.97%
inhibition at 10 µM [29]: 18.8%
inhibition at 10 µM [30]: 15.5%
inhibition at 10 µM [31]: 5.16%
inhibition at 10 µM [32]: -14.6%
inhibition at 10 µM [33]: -1.63%
inhibition at 10 µM [34]: 3.25%
inhibition at 10 µM [35]: 7.18%
inhibition at 10 µM [36]: -16.1%
inhibition at 10 µM [37]: 16.2%
inhibition at 10 µM [38]: 1.94%
inhibition at 10 µM [39]: 14.2%
inhibition at 10 µM [40]: -2.96%
inhibition at 10 µM [41]: 15.2%
inhibition at 10 µM [42]: -11.4%
inhibition at 10 µM [43]: -3.96%
inhibition at 10 µM [44]: 10.7%
inhibition at 10 µM [45]: 3.15%
